Test systems include MDA-MB-435; U251 CNS; IGROV1 ovarian; OVCAR-4 ovarian; NCI-H460 lung; MOLT-4 leukemia; HOP-62 NSCLC; OVCAR-3 ovarian; MALME-3M melanoma; CAKI-1 renal.
Assay in all cases: NCI tumour cell line growth inhibition, 48 h

We go through 13 compounds from PubChem BioAssay (NCI).

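Five concentrations, 48 hours, 96-well plates. At the GI50, growth is halved. Definition used: TGI = concentration required for complete inhibition of growth.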

`CC(=O)c1ccc(N=Nc2ccc3nonc3c2N)cc1`: the TGI in the experiment on MDA-MB-435, in the experiment with U251 CNS, with IGROV1 ovarian, with OVCAR-4 ovarian, in the experiment with NCI-H460 lung and in the experiment on MOLT-4 leukemia was above 100 µM each time. Further, the TGI with HOP-62 NSCLC, in the experiment on OVCAR-3 ovarian, with MALME-3M melanoma and in the experiment on CAKI-1 renal was above 100 µM in each case.

For the compound `COc1cc2c(cc1C[N+](C)(C)CSc1ccccc1)-c1ccccc1CC2`, the TGI in the experiment with MDA-MB-435 amounted to 12.5 µM; with U251 CNS, 27.8 µM; in the experiment on IGROV1 ovarian, 12.5 µM; in the experiment with OVCAR-4 ovarian, 18.9 µM; with NCI-H460 lung it was 9.43 µM; in the experiment on MOLT-4 leukemia it was 9.59 µM. Moreover, the TGI worked out at 27.1 µM with HOP-62 NSCLC, 13 µM with OVCAR-3 ovarian, 6.23 µM in the experiment with MALME-3M melanoma and 26.4 µM in the experiment with CAKI-1 renal.

Take `CN(C)c1ccc(/C=N/Nc2nc3ccccc3c(=O)n2-c2ccccc2)cc1`: the TGI is above 100 µM in the experiment on MDA-MB-435; above 100 µM in the experiment with U251 CNS; above 100 µM with IGROV1 ovarian; 70.2 µM in the experiment with OVCAR-4 ovarian; above 100 µM with NCI-H460 lung; above 100 µM with MOLT-4 leukemia. Further, the TGI was 97.8 µM with HOP-62 NSCLC, above 100 µM in the experiment on OVCAR-3 ovarian, above 100 µM in the experiment on MALME-3M melanoma and above 100 µM in the experiment on CAKI-1 renal.

In the case of `CCC1C(=O)C[C@H]2[C@@H]3C(O)CC4=CC(=O)CC[C@]4(C)[C@H]3CC[C@]12C` (some centres undefined), the TGI with MDA-MB-435, in the experiment with U251 CNS, with IGROV1 ovarian, in the experiment with OVCAR-4 ovarian, in the experiment on NCI-H460 lung and in the experiment on MOLT-4 leukemia was above 50 µM in each case. In addition, the TGI with HOP-62 NSCLC, in the experiment with OVCAR-3 ovarian, in the experiment with MALME-3M melanoma and with CAKI-1 renal was above 50 µM each time.

On to `Cn1ccnc1Sc1ccc(/C=N/NC(=O)c2ccccc2O)cc1[N+](=O)[O-]`, for which the TGI in the experiment with MDA-MB-435 is above 100 µM; with U251 CNS, above 100 µM; with IGROV1 ovarian, above 100 µM; with OVCAR-4 ovarian it was above 100 µM; with NCI-H460 lung, above 100 µM; in the experiment with MOLT-4 leukemia it was 13.3 µM. Moreover, the TGI in the experiment on HOP-62 NSCLC, with OVCAR-3 ovarian, with MALME-3M melanoma and in the experiment on CAKI-1 renal was above 100 µM in each case.

As for `Cn1ccnc1S/C(=C\C=C(C#N)C#N)c1ccc(Cl)cc1`, the TGI in the experiment with MDA-MB-435 was 2.45 µM; with U251 CNS it was 6.85 µM; in the experiment with IGROV1 ovarian it was 16.1 µM; with OVCAR-4 ovarian, above 17.9 µM; in the experiment on NCI-H460 lung, 27.2 µM; in the experiment on MOLT-4 leukemia it was 6.25 µM. The TGI in the experiment on HOP-62 NSCLC amounted to 11.1 µM; in the experiment on OVCAR-3 ovarian it was 5.29 µM; with MALME-3M melanoma, 3.27 µM; in the experiment on CAKI-1 renal, 6.16 µM.

For the compound `C=CCC(C)C12CCNC(Cc3ccc(O)cc31)C2C` (centres undefined), the TGI in the experiment with MDA-MB-435, with U251 CNS, in the experiment on IGROV1 ovarian, with OVCAR-4 ovarian, with NCI-H460 lung and in the experiment with MOLT-4 leukemia was above 100 µM each time. The TGI with HOP-62 NSCLC and with MALME-3M melanoma was above 100 µM throughout.

For `O=C(CSc1nc2ccccc2[nH]1)Nc1ccc(-c2nc3ccccc3s2)c(Cl)c1`, the GI50 in the experiment on MDA-MB-435 was 3.89 µM; in the experiment on U251 CNS it was 1.85 µM; in the experiment on IGROV1 ovarian, 1.6 µM; in the experiment on OVCAR-4 ovarian it was 2.56 µM; in the experiment on NCI-H460 lung it was 3.47 µM; with MOLT-4 leukemia, above 100 µM. Further, the GI50 is 2.17 µM in the experiment on OVCAR-3 ovarian, 2.59 µM in the experiment on MALME-3M melanoma and 4.17 µM with CAKI-1 renal. Besides, the TGI in the experiment with MDA-MB-435 was above 100 µM; with U251 CNS it was 4.33 µM; in the experiment with IGROV1 ovarian, 4.99 µM; in the experiment with OVCAR-4 ovarian, above 100 µM; with NCI-H460 lung, above 100 µM; in the experiment on MOLT-4 leukemia, above 100 µM. Besides, the TGI with OVCAR-3 ovarian was 4.55 µM; with MALME-3M melanoma, 8.92 µM; in the experiment on CAKI-1 renal, above 100 µM.

For `CCOC(=O)/C(=C\NCC(O)c1ccccc1)c1nc2ccccc2[nH]1` (centres undefined), the TGI in the experiment with MDA-MB-435 is 51.8 µM; in the experiment with IGROV1 ovarian it was 57.4 µM; in the experiment with OVCAR-4 ovarian, 75.5 µM; with NCI-H460 lung it was 50.5 µM; in the experiment with MOLT-4 leukemia it was 34.3 µM; in the experiment on HOP-62 NSCLC it was above 100 µM. In addition, the values for the TGI in the experiment on OVCAR-3 ovarian, in the experiment on MALME-3M melanoma and with CAKI-1 renal were above 100 µM, 52 µM and above 100 µM, respectively.

`CCOC(C[Se]CC(OCC)OCC)OCC`: the TGI with MDA-MB-435 was above 100 µM; in the experiment with U251 CNS, 38.4 µM; in the experiment with IGROV1 ovarian it was 93.2 µM; with OVCAR-4 ovarian it was above 100 µM; in the experiment with NCI-H460 lung, above 100 µM; in the experiment with MOLT-4 leukemia it was above 100 µM. Further, the TGI in the experiment on OVCAR-3 ovarian, in the experiment on MALME-3M melanoma and with CAKI-1 renal was above 100 µM throughout.

With `CC(=O)C(C(C)=O)=C1CCCC(O)O1` (centres undefined), the TGI with MDA-MB-435, in the experiment on U251 CNS, with IGROV1 ovarian, in the experiment on OVCAR-4 ovarian, with NCI-H460 lung and in the experiment with MOLT-4 leukemia was above 100 µM each time. Moreover, the TGI with HOP-62 NSCLC and in the experiment with MALME-3M melanoma was above 100 µM each time.

Take `Cc1ccc(C)n2c1nc1ccc3ccccc3c12`: the TGI in the experiment on MDA-MB-435, in the experiment on U251 CNS, in the experiment with IGROV1 ovarian, in the experiment on NCI-H460 lung, in the experiment on MOLT-4 leukemia and in the experiment on HOP-62 NSCLC was above 100 µM each time. For the same compound, the TGI in the experiment with OVCAR-3 ovarian and in the experiment on MALME-3M melanoma was above 100 µM each time.

As for `COc1ccc(N2C=Nn3c(nc4sc(C)c(C)c4c3=O)C2)cc1`, the TGI in the experiment with MDA-MB-435, in the experiment with U251 CNS, in the experiment on IGROV1 ovarian, in the experiment with OVCAR-4 ovarian, in the experiment on NCI-H460 lung and in the experiment with MOLT-4 leukemia was above 100 µM each time. Further, the TGI in the experiment on HOP-62 NSCLC, with MALME-3M melanoma and in the experiment with CAKI-1 renal was above 100 µM throughout.
